Measurements taken from patent US11345696B2, “Compounds and methods of treating or ameliorating an IL-1R-mediated disease or disorder using same” (DREXEL UNIVERSITY, priority 2014, dated 2022).

Columns and labels:
SSc fibroblasts = experiment: Total collagen (hydroxyproline) in culture media of SSc fibroblasts; format: cell-based; settings: for total collagen secretion into the culture media as measured by hydroxyproline: SSc dermal fibroblasts, 48 h, 100 μM or 10 μM compound (FIG. 5); for blocking collagen synthesis: in vitro, fibroblasts derived from scleroderma patients
Method: FIG. 5 is a set of graphs illustrating target validation studies. […] SSc dermal fibroblasts were treated for 48 h with 100 μM or 10 μM of compound, then media was collected and total collagen was measured by hydroxyproline. Samples were tested in triplicate across different patient samples and expressed as the mean±SEM (n=4). *p<0.0001, **p=0.02.
SSc fibroblasts were treated for 48 h with 1 nM compound, and then culture media was recovered and hydroxyproline was measured. Samples were tested in triplicate across different patient samples and expressed as the mean±SEM (n=3 independent patient samples).
SSc fibroblasts were cultured with selected molecules of the invention, and total collagen synthesis was assessed with hydroxyproline. […] KA862 and KA494 were selected for further in vitro evaluation.

[1] = test system: normal fibroblasts stimulated with bleomycin; experiment: Bleomycin induced fibrosis in vitro model: normal fibroblasts stimulated with bleomycin, hydroxyproline in culture media; format: cell-based; settings: for IC50: Fibroblast, decreasing concentrations of compound against 10 μM bleomycin, 48 h, hydroxyproline in culture media (FIG. 9); for blocking collagen synthesis: in vitro, normal fibroblasts stimulated with 10 μM bleomycin
Method: FIG. 7 is a set of bar graphs illustrating the finding that compounds of the invention are effective against bleomycin induced fibrosis in an in vitro model. Top graph: normal fibroblasts stimulated with bleomycin (Bleo)+IL-1RA (n=3); bottom graph: normal fibroblasts stimulated with Bleo+KA862 (n=3).
FIG. 9 is a set of graphs illustrating the IC50 determination for KA521, KA222, KA306, and KA695. Decreasing concentrations of compound were tested against 10 μM bleomycin for 48 h and hydroxyproline measured in the culture media.
Without wishing to be limited by any theory, designing a focused screening library allows for the identification of analogs with favorable drug-like properties and binding efficacy against IL-1R. Compounds of interest may be tested in vitro using patient-derived scleroderma fibroblasts, normal fibroblasts treated with bleomycin to increase collagen synthesis, and in vivo in scleroderma animal models.
FIG. 7 illustrates the finding that compounds of the invention are effective against bleomycin induced fibrosis. Normal fibroblasts were treated with bleomycin and either IL-1RA or a compound of the invention, so as to inhibit collagen.

| SMILES | total collagen secretion into the culture media as measured by hydroxyproline (SSc fibroblasts) | IC50 [1] | blocking collagen synthesis (SSc fibroblasts) | blocking collagen synthesis [1] |
| --- | --- | --- | --- | --- |
| O=C(CN(Cc1ccc2c(c1)OCO2)S(=O)(=O)c1ccc(S(=O)(=O)NC2CCCC2)cc1)Nc1ccccc1 [KA199, N^2-(1,3-benzodioxol-5-ylmethyl)-N^2-{[4-(cyclopentylsulfamoyl)phenyl]sulfonyl}-N-phenyl glycinamide] | effective at reducing total collagen secretion |  |  |  |
| COCCOC(=O)C1=C(C)NC2=C(C(=O)CCC2)C1c1cccc2ccccc12 (stereo not drawn) [KA695, 2-methoxyethyl 2-methyl-4-(naphthalen-1-yl)-5-oxo-1,4,5,6,7,8-hexahydroquinoline-3-carboxylate] |  | ~1 nM |  |  |
| O=C(CSc1nnc(Cc2csc(Nc3cccc(Cl)c3)n2)n1Cc1ccco1)OC1CCCCC1 [KA862, cyclohexyl 2-((5-((2-((3-chlorophenyl)amino)thiazol-4-yl)methyl)-4-(furan-2-ylmethyl)-4H-1,2,4-triazol-3-yl)thio)acetate] | effective at reducing total collagen secretion |  | efficacious in blocking collagen synthesis | efficacious in blocking collagen synthesis |
| O=C(C[S+]([O-])CC(=O)N(CC(=O)NC1CCCC1)Cc1ccccc1Cl)Nc1ccc2c(c1)OCO2 (stereo not drawn) [KA680, (N^2-({[2-(1,3-benzodioxol-5-ylamino)-2-oxoethyl]sulfinyl}acetyl)-N^2-(2-chlorobenzyl)-N-cyclopentylglycinamide)] | effective at reducing total collagen secretion |  |  |  |
| COc1cccc(NC(=O)Cn2nc(-c3ccncc3)nc2SCC(=O)NC2CCCC2)c1 [KA529, (2-[5-{[2-(cyclopentylamino)-2-oxoethyl]sulfanyl}-3-(4-pyridinyl)-1H-1,2,4-triazol-1-yl]-N-(3-methoxyphenyl)acetamide)] | effective at reducing total collagen secretion |  |  |  |
| O=C(C[S+]([O-])CC(=O)N(CC(=O)NC1CCCCC1)c1cccc2ccccc12)Nc1ccc(F)cc1 (stereo not drawn) [KA494, N-(2-(cyclohexylamino)-2-oxoethyl)-2-((2-((4-fluorophenyl)amino)-2-oxoethyl)sulfinyl)-N-(naphthalen-1-yl)acetamide] | effective at reducing total collagen secretion |  | efficacious in blocking collagen synthesis | efficacious in blocking collagen synthesis |
| COC(=O)C1=C(C)NC2=C(C(=O)CC(c3ccc(OC)c(OC)c3)C2)C1c1cccc2ccccc12 (stereo not drawn) [KA306, methyl 7-(3,4-dimethoxyphenyl)-2-methyl-4-(naphthalen-1-yl)-5-oxo-1,4,5,6,7,8-hexahydroquinoline-3-carboxylate] |  | ~1 nM |  |  |
| Cc1nn(-c2ccccc2)c2c1C(c1c(O)ccc3ccccc13)C(C#N)=C(N)O2 (stereo not drawn) [KA222, 6-amino-4-(2-hydroxynaphthalen-1-yl)-3-methyl-1-phenyl-1,4-dihydropyrano[2,3-c]pyrazole-5-carbonitrile] |  | ~1 nM |  |  |
